Results from paper PMC6546875, “Efficacy of Antimicrobial Peptide DP7, Designed by Machine-Learning Method, Against Methicillin-Resistant Staphylococcus aureus” (Frontiers in Microbiology, 2019).
Values after ≈ are worked out from the molar mass of the structure shown. Values joined by “and” are separate entries in the source; they are usually repeats but may differ in a detail not shown here. Equal entries are not always repeated. Structures can show the parent of a compound that is named as a salt. Where two headings read alike, the source gives them in different places. Marks after values point to notes of the source that are not given here. No end group written: not given here.

Columns and labels:
S. aureus DP7-R = format: cell-based, Staphylococcus aureus; settings: change from 1× MIC (ATCC 25923) to n× MIC (DP7-R)
Method: Subsequently, the bacterial samples were counted at different time points (0, 1, 2, 4, 6, 8, 18, and 24 h).
For every 48 h, we transferred 2% of each culture to new flasks containing fresh medium with a twofold higher DP7 concentration. […] Aliquots from each population were stored in 20% glycerol at -80°C.

S. aureus ATCC 25923 [1] = test: microbe, parasite or virus in culture; settings: Staphylococcus aureus, ATCC25923, 22 h, read-out: MIC for ATCC 25923
S. aureus = test: In vitro time-killing assay; format: cell-based, Staphylococcus aureus; settings: Figure 1; S. aureus ATCC 25923 and ATCC 33591
MRSA strain ATCC 33591 = test: Murine model of MRSA blood stream infection; format: in vivo, C57 female mice; settings: 10 mg/kg i.v., 72 h, vs PBS-treated mice, n = 5
Method: A well-characterized murine model of blood stream infection was employed to study the pharmacodynamics profiles of DP7 and compare them with those of vancomycin. Briefly, C57 female mice (body weight 17 g ± 1 g), purchased from Hua Fu Kang Biological Technology Co., Ltd (Beijing, China), were intravenously infected with 1 × 10^8 CFU/100 μL of MRSA strain ATCC 33591 in the logarithmic growth phase (recovery on defibrinated sheep blood agar, Oxoid, United Kingdom). One hour after infection, the mice were treated with various doses of DP7 (0.5, 1, and 2 mg/kg), while the mice in the control group were injected with the same volume of saline. Vancomycin at 10 mg/kg was used as the positive control. Survival and weight changes were observed every 24 h for 1 week. At 24 and 72 h, organs, including the heart, liver, spleen, lung, kidney, and blood were collected and the bacterial load was counted for each murine. At 72 h, the liver, spleen, lungs, and kidneys were fixed with 4% paraformaldehyde for 1 week, sectioned at 4 μm after processing for paraffin embedding, and then stained with hematoxylin and eosin (H&E). All animal procedures were approved and controlled by the Institutional Animal Care and Treatment Committee of Sichuan University and conducted according to the Animal Care and Use Guidelines of Sichuan University.

S. aureus ATCC 25923 [2] = settings: superscript b; ref Shen et al., 2012; cited from earlier work
Source text: Table 1 MIC of various AMPs against S. aureus. | column: MIC for ATCC 25923 (mg/L) || Here, the antimicrobial peptide (AMP) DP7, a short 12 amino acid AMP with broad-spectrum antibacterial activities, was chosen to analyze its potential mechanisms for killing S. aureus.

S. aureus ATCC 33591 [3] = settings: superscript b; ref Shen et al., 2012; cited from earlier work
S. aureus ATCC 33591 [4] = format: cell-based, Staphylococcus aureus; settings: ATCC 33591, 22 h
Method: (§1) The susceptibility testing methods were performed as previously described ([Wiegand et al., 2008]). […] The minimum bactericidal concentration (MBC) endpoint is the lowest concentration of antibacterial agent that kills > 99.9% of the initial bacterial population where no visible growth of bacteria was observed on nutrient agar plates. […] Subsequently, the bacterial samples were counted at different time points (0, 1, 2, 4, 6, 8, 18, and 24 h).

S. aureus ATCC 25923 [5] = system: S. aureus ATCC 25923
E. coli (ATCC 25922) = format: cell-based, Escherichia coli; settings: ATCC 25922, 22 h
Method: as §1

P. aeruginosa (PAO1) = format: cell-based, Pseudomonas aeruginosa; settings: PAO1, 22 h
Method: as §1

Compound: CC[C@H]1OC(=O)[C@H](C)[C@@H](O[C@H]2C[C@@](C)(OC)[C@@H](O)[C@H](C)O2)[C@H](C)[C@@H](O[C@@H]2O[C@H](C)C[C@H](N(C)C)[C@H]2O)[C@](C)(O)C[C@@H](C)CN(C)[C@H](C)[C@@H](O)[C@]1(C)O [azithromycin]
- MIC for DP7-R as multiple of the MIC for ATCC 25923 (S. aureus DP7-R): 1 × MIC
- MIC (S. aureus ATCC 25923 [1]): 0.125 µg/mL (≈ 0.167 µM)

Compound: CNC(C)C1CCC(N)C(OC2C(N)CC(N)C(OC3OCC(C)(O)C(NC)C3O)C2O)O1 (stereo not shown) [gentamicin]
- MIC use here (time-killing curves) (S. aureus): 0.125 µg/mL (≈ 0.262 µM)
- MIC for DP7-R as multiple of the MIC for ATCC 25923 (S. aureus DP7-R): 4 × MIC
- MIC (S. aureus ATCC 25923 [1]): 0.0625 µg/mL (≈ 0.131 µM)

Compound: COc1c(N2C[C@@H]3CCCN[C@@H]3C2)c(F)cc2c(=O)c(C(=O)O)cn(C3CC3)c12 [moxifloxacin hydrochloride]
- MIC for DP7-R as multiple of the MIC for ATCC 25923 (S. aureus DP7-R): 1 × MIC
- MIC (S. aureus ATCC 25923 [1]): 0.125 µg/mL

Compound: CCn1cc(C(=O)O)c(=O)c2cc(F)c(N3CCNCC3)cc21 [noroxin, norfloxacin]
- MIC use here (time-killing curves) (S. aureus): 1 µg/mL (≈ 3.13 µM)
- MIC for DP7-R as multiple of the MIC for ATCC 25923 (S. aureus DP7-R): 2 × MIC
- MIC (S. aureus ATCC 25923 [1]): 1 µg/mL (≈ 3.13 µM)

Compound: CC1COc2c(N3CCN(C)CC3)c(F)cc3c(=O)c(C(=O)O)cn1c23 (stereo not shown) [ofloxacin]
- MIC for DP7-R as multiple of the MIC for ATCC 25923 (S. aureus DP7-R): 2 × MIC
- MIC (S. aureus ATCC 25923 [1]): 0.25 µg/mL (≈ 0.692 µM)

Compound: CO[C@H]1/C=C/O[C@@]2(C)Oc3c(C)c(O)c4c(O)c(c(/C=N/N5CCN(C)CC5)c(O)c4c3C2=O)NC(=O)/C(C)=C\C=C\[C@H](C)[C@H](O)[C@@H](C)[C@@H](O)[C@@H](C)[C@H](OC(C)=O)[C@@H]1C [rifampicin]
- MIC for DP7-R as multiple of the MIC for ATCC 25923 (S. aureus DP7-R): 1 × MIC

Compound: CN[C@H](CC(C)C)C(=O)N[C@H]1C(=O)N[C@@H](CC(N)=O)C(=O)N[C@H]2C(=O)N[C@H]3C(=O)N[C@H](C(=O)N[C@H](C(=O)O)c4cc(O)cc(O)c4-c4cc3ccc4O)[C@H](O)c3ccc(c(Cl)c3)Oc3cc2cc(c3O[C@@H]2O[C@H](CO)[C@@H](O)[C@H](O)[C@H]2O[C@H]2C[C@](C)(N)[C@H](O)[C@H](C)O2)Oc2ccc(cc2Cl)[C@H]1O [vancomycin]
- MIC use here (time-killing curves) (S. aureus): 0.25 µg/mL (≈ 0.173 µM)
- MIC for DP7-R as multiple of the MIC for ATCC 25923 (S. aureus DP7-R): 1 × MIC
- MIC (S. aureus ATCC 25923 [1]): 0.25 µg/mL (≈ 0.173 µM)
- bacterial load in heart, liver, spleen, lung, kidney and blood (MRSA strain ATCC 33591): statistically significant reductions

Compound: LLGDFFRKSKEKIGKEFKRI VQRIKDFLRNLVPRTES [LL-37, antimicrobial peptide, 37 amino acids]
- MIC for ATCC 25923 (S. aureus ATCC 25923 [2]): 14 mg/L and 14^b mg/L
- MIC for ATCC 33591 (S. aureus ATCC 33591 [3]): 28^b mg/L

Compound: RLARIVVIRVAR [Bac2A]
- MIC for ATCC 33591 (S. aureus ATCC 33591 [4]): 43.7^a mg/L

Compound: VQLRIRVAVIRA [HH2]
- MIC for ATCC 33591 (S. aureus ATCC 33591 [4]): 64^a mg/L
- MIC for ATCC 25923 (S. aureus ATCC 25923 [5]; ATCC 25923, 22 h): 64 mg/L

Compound: VQLRIRVCVIRK [DP8]
- MIC for DP7-R as multiple of the MIC for ATCC 25923 (S. aureus DP7-R): 4 × MIC
- MIC for ATCC 25923 (S. aureus ATCC 25923 [5]; ATCC 25923, 22 h): 16 mg/L

Compound: VQLRIRVCVIRK [DP10]
- MIC for DP7-R as multiple of the MIC for ATCC 25923 (S. aureus DP7-R): 4 × MIC
- MIC for ATCC 25923 (S. aureus ATCC 25923 [5]; logarithmic growth-phase bacteria, 37°C, 22 h, OD600): 64 mg/L

Compound: VQWRIRVAVIRK [DP7]
- MBC (E. coli (ATCC 25922)): 64 µg/mL
- MIC (E. coli (ATCC 25922)): 16 µg/mL
- MBC (S. aureus ATCC 33591 [4]): 64 µg/mL
- MIC for ATCC 33591 (S. aureus ATCC 33591 [4]): 16^a mg/L
- MBC (S. aureus ATCC 25923 [5]; ATCC 25923, 22 h): 64 µg/mL
- MIC for ATCC 25923 (S. aureus ATCC 25923 [5]; ATCC 25923, 22 h): 16^a mg/L
- MBC (P. aeruginosa (PAO1)): 64 µg/mL
- MIC (P. aeruginosa (PAO1)): 16 µg/mL
